This assay deals with T1, thrombin (Bos taurus, UniProt P00735).
T1 construct: purchased Sigma T-3399
Kind of assay: biological assay for thrombin inhibitory activity (fluorogenic substrate). To be noted: for inhibition at 50 µM: test probe concentration 50 μM; for inhibition at 100 µM: test probe concentration 100 μM. The format is biochemical. How it is done: The biological assay (28320) for thrombin inhibitory activity is detailed below. To Nunc 96-well black fluorescence plate wells is added 70 microliters of assay buffer, followed by 10 microliters of 1 millimolar substrate solution. Test probe (10 microliters in 30% DMSO) is then added to wells according to the desired concentrations for the assay. The mixture is incubated at 37° C. for 5 minutes, followed by addition of 10 microliters of thrombin (100 micrograms/mL in assay buffer), to make a final assay volume of 100 microliters. The plate is mixed gently and incubated 15 minutes at 37° C. Stop buffer (100 microliters) is added, and the plate is read by detecting emission at 460 nm. Percent inhibition of test compound is calculated by comparison with control wells. “Assay buffer” is composed of 100 mM KH2PO4, 100 mM Na2HPO4, 1 mM EDTA, 0.01% BRIJ-35, and 1 mM dithiothreitol (added fresh on the day assay is preformed). “Stop buffer” is composed of 100 mM Na—O(O)CCH2Cl and 30 mM sodium acetate which is brought to pH 2.5 with glacial acetic acid. Thrombin was purchased from Sigma (cat #T-3399). Thrombin substrate III fluorogenic was purchased from ICN (cat #195915). Sodium acetate, dithiothreitol, and Brij-35 were purchased from Sigma. Sodium monochloroacetate was purchased from Lancaster 223-498-3. Glacial acetic acid was purchased from Alfa Aesar (cat #33252). Thrombin was stored at −20° C. Thrombin substrate fluorogenic was stored at −20° C. (5 mM in DMSO).
Results are expressed as percentage inhibition at a given test probe concentration in the Table below;

`COc1ccc(CNC(=O)c2cc(Cl)ccc2NC(=O)c2n[nH]c3ccccc23)cc1OC` [Example B1]: the inhibition (usually the percentage by which the read-out fell short of the control) at 50 µM fell in the range of 10 to 39% and the inhibition at 100 µM fell in the range of 40 to 74%.

As to `CCCCN(CCCC)CCCNC(=O)c1cc(Cl)ccc1NC(=O)c1n[nH]c2ccccc12` [Example B2], the inhibition at 50 µM fell in the range of 10 to 39% and the inhibition at 100 µM lay in the range of 40 to 74%.

`C[C@@H](NC(=O)C(NC(=O)c1n[nH]c2ccccc12)C1CCNCC1)c1ccccc1` (stereo partly drawn) [Example B3] showed an inhibition at 50 µM of 10 to 39% and an inhibition at 100 µM of 40 to 74%.

For the origin of these results see patent US20110039714A1, “Probes, Systems, and Methods for Drug Discovery” (priority 2001, published 2011).
